Data taken from patent US20220125348A1, “DETECTION OF INTERFERENT IN ANALYTE SENSING” (MEDTRONIC MINIMED, INC., priority 2020, published 2022).

Assay: in vivo study of the concentration of acetaminophen in plasma and in interstitial fluid over time (FIG. 8)
Description: FIG. 8 illustrates an in vivo study of the concentration of acetaminophen in plasma and in interstitial fluid over time;
FIG. 8 further illustrates acetaminophen measured in concentration in vivo in plasma, at line 82, and in interstitial fluid, at line 84.

CC(=O)Nc1ccc(O)cc1 [acetaminophen]
measured acetaminophen concentration in interstitial fluid compared with plasma: less than that of plasma
time acetaminophen is present in interstitial fluid (interstitial fluid): over six
time acetaminophen is present in plasma (plasma): over six
